# Tests used:
# lens elasticity [1] = assay: Pharmacological Test-3: lens elasticity, Compounds 5 and 6, 3 times per day for 14 days; format: in vivo,  mice; conditions: for Lens elasticity improvement: 0.03% (w/v) solution in Vehicle C, both eyes, 3 times per day for 14 days, 9-month-old mice; for lens elasticity improving effect: at a concentration of 0.03%
# Procedure: The effects of Compounds 5 and 6 on the lens elasticity were investigated.
# Compound 5 was stirred with the addition of Vehicle C to give a 0.03% (w/v) solution.
# Compound 6 was stirred with the addition of Vehicle C to give a 0.03% (w/v) solution.
# EV06 was stirred with the addition of Vehicle C to give a 0.03% (w/v) solution, which was used for comparison to the samples of Compounds 5 and 6.
# 1) Each test sample (2.5 μL/eye) was instilled into both eyes of 9-month-old […] mice with a Pipetman 3 times per day (around 9:00, 13:00 and 17:00) for 14 days. 2) After the final instillation, the mice were euthanized by carbon dioxide inhalation, and then the eyeballs were extracted and rinsed with Hank's balanced salt solution (HESS). 3) The sclera near the optic nerve was cut with a razor, the lens was removed through the incision, and the removed lens was immersed in HESS. 4) The lens was placed on a glass slide, and an all-in-one fluorescence microscope BZ-9000 (Keyence) was used to capture an image of the lens (Image a). 5) Next, one cover glass (Corning^(registered trade mark) 22×22 mm Square) was placed on the lens, and an image in which the thickness of the lens changed due to the weight was similarly captured (Image b). 6) A change in the lens diameter was calculated from the following Equation 1 wherein the lens diameter of Image a is subtracted from the lens diameter of Image b. Then, the lens elasticity improvement of each sample group compared with the vehicle control group was calculated from Equation 2 described below. The mean value of the vehicle control group was based on 8 eyes, and the mean value of each of the sample groups of Compounds 5 and 6 and EV06 was based on 10 eyes.
# (§1) Change in lens diameter=Lens diameter in Image b of each test sample−Lens diameter in Image a of each test sample (Equation 1)
# (§2) Lens elasticity improvement of each sample group=Mean change in lens diameter of each Test sample group−Mean change in lens diameter of Vehicle control group (Equation 2)
# lens elasticity [2] = assay: Pharmacological Test-1: lens elasticity after instillation 3 times per day for 12 to 15 days; format: in vivo, C57BL/6J mice; conditions: for Lens elasticity improvement: 0.03% (w/v) solution, 2.5 μL/eye, right eye, 3 times per day for 12 to 15 days, 8-month-old mice, vs vehicle control; for lens elasticity improving effect: at a concentration of 0.03%
# Procedure: The effects of compounds 1 to 4 on the lens elasticity were examined. The tests were conducted with reference to the methods described in Invest Ophthalmol Vis Sci, 57, 2851-2863, 2016.
# A vehicle (aqueous solution) comprising 0.1% (w/v) of ethyl pyruvate, 0.269% (w/v) of sodium dihydrogenphosphate monohydrate (NaH2PO4.H2O), 0.433% (w/v) of di sodium hydrogenphosphate (Na2HPO4), 0.2% (w/v) of hydroxypropyl methylcellulose, 0.5% (w/v) of NaCl, 1.0% (w/v) of polyoxyl 35 castor oil (hereinafter also referred to as “CO35”), and purified water (appropriate amount) was prepared.
# Each of compounds 1 to 4 was stirred with the addition of the vehicle to give a 0.03% (w/v) solution.
# EV06 was stirred with the addition of the vehicle to give a 0.03% (w/v) solution. (Test method) 1) Each test sample (2.5 μL/eye) was instilled into the right eye of 8-month-old C57BL/6J mice with a Pipetman 3 times per day (around 9:00, 13:00, 17:00) for 12 to 15 days. 2) After the final instillation, the mice were euthanized by carbon dioxide inhalation, and then the eyeballs were extracted and rinsed with Hank's balanced salt solution (HESS). 3) The sclera near the optic nerve was cut with a razor, the lens was removed through the incision, and the removed lens was immersed in HESS. 4) The lens was placed on a glass slide, and an all-in-one fluorescence microscope BZ-9000 (Keyence) was used to capture an image of the lens (Image a). 5) Next, one cover glass (Corning^registered trade mark) 22×22 mm Square) was placed on the lens, and an image in which the thickness of the lens changed due to the weight was similarly captured (Image b). 6) A change in the lens diameter was calculated from the following Equation 1 wherein the lens diameter of Image a is subtracted from the lens diameter of Image b. Then, the lens elasticity improvement of each sample group compared with the vehicle control group was calculated from Equation 2 described below. The mean value of the vehicle control group was based on 5 eyes, the mean value of each of the sample groups of compounds 1 to 4 was based on 10 eyes, and the mean value of EV06 sample group was based on 9 eyes.
# as §1, §2
# lens elasticity [3] = assay: Pharmacological Test-2: lens elasticity at different concentrations, instillation 3 times per day for 12 to 15 days; format: in vivo, C57BL/6J mice; conditions: for Lens elasticity improvement: 3 times per day for 12 to 15 days, 7 to 8-month-old mice
# Procedure: The effects of Compounds 1, 3, and 4 on the lens elasticity were investigated at different concentrations.
# (§3) Vehicle A (aqueous solution) comprising 0.1% (w/v) of ethyl pyruvate, 0.269% (w/v) of sodium dihydrogenphosphate monohydrate (NaH2PO4.H2O), 0.433% (w/v) of disodium hydrogenphosphate (Na2HPO4), 0.2% (w/v) of hydroxypropyl methylcellulose, 0.5% (w/v) of NaCl, 0.2% (w/v) of 0035, and purified water (appropriate amount) was prepared.
# as §3, with “B (emulsion)” for “A (aqueous solution)”, “CO35, 0.6% benzyl benzoate,” for “0035,”
# as §3, with “Vehicle C” for “Vehicle A”, “NaCl, 1.0%” for “NaCl, 0.2%”
# as §3, with “Vehicle D (emulsion)” for “Vehicle A (aqueous solution)”, “NaCl, 1.0%” for “NaCl, 0.2%”, “of CO35, 3.0% benzyl benzoate,” for “of 0035,”
# A diluent (aqueous solution) comprising 0.1% (w/v) of ethyl pyruvate, 0.269% (w/v) of sodium dihydrogenphosphate monohydrate (NaH2PO4.H2O), 0.433% (w/v) of disodium hydrogenphosphate (Na2HPO4), 0.2% (w/v) of hydroxypropyl methylcellulose, 0.5% (w/v) of NaCl, and purified water (appropriate amount) was prepared.
# Compound 1 was stirred with the addition of Vehicle C to prepare a 1.5% (w/v) emulsion, and the emulsion was diluted with the diluent to give a 0.3% (w/v) emulsion. Further, the resulting 0.3% (w/v) emulsion was diluted with the diluent to give a 0.03% (w/v) emulsion. Further, the resulting 0.03% (w/v) emulsion was diluted with the diluent to give a 0.003% (w/v) emulsion.
# Compound 3 was stirred with the addition of Vehicle C to give a 1.5% (w/v) solution, and the resulting solution was diluted to give a 0.3% (w/v) solution. Further, the resulting 0.3% (w/v) solution was diluted with Vehicle A to give a 0.03% (w/v) solution. Further, the resulting 0.03% (w/v) solution was diluted with Vehicle A to give a 0.003% (w/v) solution.
# Compound 4 was stirred with the addition of Vehicle D to give a 1.5% (w/v) emulsion, and the resulting emulsion was diluted with the diluent to prepare a 0.3% (w/v) emulsion. Further, the resulting 0.3% (w/v) emulsion was diluted with the diluent to give a 0.03% (w/v) emulsion. Further, the resulting 0.03% (w/v) emulsion was diluted with the diluent to give a 0.003% (w/v) emulsion.
# EV06 was stirred with the addition of Vehicle A to give a 1.5% (w/v) solution, which was used for comparison to the samples of Compound 1 and 3.
# EV06 was sonicated with the addition of Vehicle B to give a 1.5% (w/v) emulsion, which was used for comparison to Compound 4 sample.
# (Test method) 1) Each test sample (2.5 μL/eye) was instilled into the right eye of 7 to 8-month-old C57BL/6J mice with a Pipetman 3 times per day (around 9:00, 13:00 and 17:00) for 12 to 15 days. 2) After the final instillation, the mice were euthanized by carbon dioxide inhalation, and then the eyeballs were extracted and rinsed with Hank's balanced salt solution (HESS). 3) The sclera near the optic nerve was cut with a razor, the lens was removed through the incision, and the removed lens was immersed in HESS. 4) The lens was placed on a glass slide, and an all-in-one fluorescence microscope BZ-9000 (Keyence) was used to capture an image of the lens (Image a). […]
compound,measurement,setting,value
"O=C(CCCC[C@@H]1CCSS1)OC(CN1CCOCC1)CN1CCOCC1 [Compound 5, 1,3-Dimorpholinopropan-2-yl (R)-5-(1,2-dithiolan-3-yl)pentanoate]",Lens elasticity improvement,lens elasticity [1],40.7 μm
same,lens elasticity improving effect,lens elasticity [1],potent lens elasticity improving effect
"O=C(CCCC[C@@H]1CCSS1)OCCN1CCOCC1 [Compound 4, 2-Morpholinoethyl (R)-5-(1,2-dithiolan-3-yl)pentanoate]",Lens elasticity improvement,lens elasticity [2],37.5 μm
same,lens elasticity improving effect,lens elasticity [2],potent lens elasticity improving effect
same,Lens elasticity improvement,lens elasticity [3]; 0.003% (w/v) sample,25.0 μm
same,Lens elasticity improvement,lens elasticity [3]; 0.03% (w/v) sample,56.5 μm
same,lens elasticity improvement compared with 1.5% EV06 group,lens elasticity [3]; 0.03% and 0.3% sample groups,equivalent to or better than 1.5% EV06 group
same,Lens elasticity improvement,lens elasticity [3]; 0.3% (w/v) sample,52.9 μm
"Cc1ncc(COC(=O)CCCC[C@@H]2CCSS2)c2c1OC(C)(C)OC2 [Compound 6, (2,2,5-Trimethyl-4H-[1,3]dioxo[5,4-c]pyridin-8-yl)methyl (R)-5-(1,2-dithiolan-3-yl)pentanoate]",Lens elasticity improvement,lens elasticity [1],38.1 μm
same,lens elasticity improving effect,lens elasticity [1],potent lens elasticity improving effect
"C[N+](C)(CCOC(=O)CCCC[C@@H]1CCSS1)Cc1ccccc1.[Cl-] [Compound 2, (R)-2-((5-(1,2-Dithiolan-3-yl)pentanoyl)oxy)-N-benzyl-N,N-dimethylethan-1-aminium chloride]",Lens elasticity improvement,lens elasticity [2],6.1 μm
same,lens elasticity improving effect,lens elasticity [2],did not show lens elasticity improving effect

# From patent US20220151989A1, “LIPOIC ACID PRODRUG” (SANTEN PHARMACEUTICAL CO., LTD., priority 2019, published 2022)
